Laboratory results from patent US20220175761A1, “BI-LIGAND DRUG CONJUGATE AND USE THEREOF” (COHERENT BIOPHARMA (SUZHOU), LIMITED, priority 2019, published 2022).
pIC50: −log10 of the molar value.

Columns and labels:
[1] = tested on: CFPAC-1 (human pancreatic cancer cells); experiment: Inhibition of cell line proliferation, CCK8; type: cell-based; details: CFPAC-1, 68-72 hours, CCK8
Protocol: Experimental operations: PANC-1 and CFPAC-1 cells were prepared in advance, counted, and plated in 96-well cell culture plates at a cell density of 4×10^4 cells/ml (100 μl/well); negative control and blank control wells were set on each plate. After adherent cell culture overnight, the diluted samples to be tested were added at 50 μl/well. The plates were placed in an incubator at 37° C., 5% CO2 and cultured for 68-72 hours. To each well, 15 μl (10% of the liquid volume in a well) of a color developing solution from CCK8 was added; and the plates were incubated at 37° C. for 45-70 minutes and each plate was read at 450 nm on a microplate reader. The data was edited using SoftMax Pro and a 4-P fitting curve was plotted.
(§1) Experimental operations: LNCaP, SK-BR-3, NCI-H226, CFPAC-1 and PANC-1 cells were prepared in advance and counted; with a culture medium (IMDM+10% FBS+1× L-Glutamine+1×P/S), the cells LNCaP, SK-BR-3 and CFPAC-1 were diluted to 4×10^4 cells/ml, NCI-H226 was diluted to 2.0×10^4 cells/ml and PANC-1 was diluted to 3.0×10^4 cells/ml; the diluted cell solution was plated in 96-well plates at 100 μl/well; and negative control and blank control wells were set on each plate. After adherent cell culture overnight, the diluted samples to be tested were added at 50 μl/well. The plates were placed in an incubator at 37° C., 5% CO2 and cultured for 68-72 hours. To each well, 15 μl (10% of the liquid volume in a well) of a color developing solution from CCK8 was added; and the plates were incubated at 37° C. for 45-70 minutes and each plate was read at 450 nm on a microplate reader. The data was edited using SoftMax Pro and a 4-P fitting curve was plotted.
(§2) Experimental Operations: LNCaP, SK-BR-3, MDA-MB-468 and CFPAC-1 cells were prepared in advance and counted; with a culture medium (IMDM+10% FBS+1× L-Glutamine+1×P/S), the cells LNCaP, SK-BR-3, MDA-MB-468 and CFPAC-1 were diluted to 4×10^4 cells/ml; the diluted cell solution was plated in 96-well plates at 100 µl/well; and negative control and blank control wells were set on each plate. After adherent cell culture overnight, the diluted samples to be tested were added at 50 μl/well. The plates were placed in an incubator at 37° C., 5% CO2 and cultured for 68-72 hours. To each well, 15 μl (10% of the liquid volume in a well) of a color developing solution from CCK8 was added; and the plates were incubated at 37° C. for 45-70 minutes and each plate was read at 450 nm on a microplate reader. The data was edited using SoftMax Pro and a 4-P fitting curve was plotted.
as §2, with “Operations: LNCaP, MDA-MB-468, CFPAC-1 and PANC-1” for “Operations: LNCaP, SK-BR-3, MDA-MB-468 and CFPAC-1”, “CFPAC-1 and PANC-1 cells were” for “MDA-MB-468 and CFPAC-1 cells were”, “cells LNCaP, MDA-MB-468 and” for “cells LNCaP, SK-BR-3, MDA-MB-468 and”, “to 4×10^4 cells/ml, and PANC-1 was diluted to 3.0×10^4 cells/ml; the” for “to 4×10^4 cells/ml; the”, “at 100 μl/well; and negative” for “at 100 µl/well; and negative”
Experimental operations: NCI-H226, CFPAC-1 and MDA-MB-468 cells were prepared in advance and counted; MDA-MB-468 and CFPAC-1 cells were plated at a density of 2×10^4 cells/ml (100 μl/well) and NCI-H226 cells were plated at a density of 1×10^4 cells/ml (100 μl/well) in 96-well plates; and negative control and blank control wells were set on each plate. After adherent cell culture overnight, the diluted samples to be tested were added at 50 μl/well. The plates were placed in an incubator at 37° C., 5% CO2 and cultured for 68-72 hours. […]

[2] = tested on: NCI-H226 (human lung cancer cells); experiment: Inhibition of cell line proliferation, CCK8; type: cell-based; details: NCI-H226, 68-72 hours, CCK8
Protocol: as §1
(§3) Experimental operations: NCI-H226, CFPAC-1 and MDA-MB-468 cells were prepared in advance and counted; MDA-MB-468 and CFPAC-1 cells were plated at a density of 2×10^4 cells/ml (100 μl/well) and NCI-H226 cells were plated at a density of 1×10^4 cells/ml (100 μl/well) in 96-well plates; and negative control and blank control wells were set on each plate. After adherent cell culture overnight, the diluted samples to be tested were added at 50 μl/well. The plates were placed in an incubator at 37° C., 5% CO2 and cultured for 68-72 hours. To each well, 15 μl (10% of the liquid volume in a well) of a color developing solution from CCK8 was added; and the plates were incubated at 37° C. for 45-70 minutes and each plate was read at 450 nm on a microplate reader. The data was edited using SoftMax Pro and a 4-P fitting curve was plotted.

[3] = tested on: MDA-MB-468 (human breast cancer cells); experiment: Inhibition of cell line proliferation, CCK8; type: cell-based; details: MDA-MB-468, 68-72 hours, CCK8
Protocol: as §2
as §2, with “Operations: LNCaP, MDA-MB-468, CFPAC-1 and PANC-1” for “Operations: LNCaP, SK-BR-3, MDA-MB-468 and CFPAC-1”, “CFPAC-1 and PANC-1 cells were” for “MDA-MB-468 and CFPAC-1 cells were”, “cells LNCaP, MDA-MB-468 and” for “cells LNCaP, SK-BR-3, MDA-MB-468 and”, “to 4×10^4 cells/ml, and PANC-1 was diluted to 3.0×10^4 cells/ml; the” for “to 4×10^4 cells/ml; the”, “at 100 μl/well; and negative” for “at 100 µl/well; and negative”
as §3

[4] = tested on: CALU-3; experiment: Tumor growth inhibition of CR19428 in subcutaneous xenograft model (CDX); type: in vivo, BALB/c-nude mice
Protocol: (§4) Experimental scheme: The tumor tissue mass were prepared and subcutaneously inoculated into the anterior right flank of BALB/c-nude mice. When the tumor volume expanded to 80-160 mm^3, a randomized grouping was performed, and a model control group and administration groups were set. The mice were administrated from the first day of grouping, wherein the administration dose was adjusted according to the latest weight measurement. The mice were administrated via tail vein injection at an administration volume of 10 μl/g and twice a week for consecutive 3 weeks. After grouping and administration, the effects of tumor growth and treatment on normal behaviors of animals, specifically including the activity of experimental animals, food intake and drinking status, weight gain or loss status, and other abnormal conditions in eyes, hair, etc., were monitored. After grouping and administration, the weight of mice was measured twice a week to calculate the rate of weight change; at the same time, the long diameter and short diameter of the tumor were measured with a vernier caliper, and the tumor volume, relative tumor proliferation rate, tumor volume inhibition rate and other indicators were calculated. The formula of tumor volume is TV=0.5 a×b^2, wherein a is the long diameter of a tumor and b is the short diameter of a tumor.

[5] = tested on: SCLC-21H; experiment: as above; type: in vivo, BALB/c-nude mice
Protocol: as §4

[6] = tested on: SPC-A1; experiment: as above; type: in vivo, BALB/c-nude mice; details: for TGI: SPC-Al
Protocol: as §4

[7] = tested on: LNCaP human prostate cancer cells; experiment: Cell binding and endocytosis by flow cytometry; type: cell-based; details: 8 nmol/L, 37° C., 15-90 minutes, compared with DU145 and NCI-H460
Protocol: (§5) Sample information: Cy5-pep-20AK and Cy5-pep-20BK Cell lines: LNCaP human prostate cancer cells, Du145 human prostate cancer cells, SKOV3 human ovarian cancer cells and NCI-H460 human lung cancer cells
(§6) (1) Cell culture: the cells were digested with trypsin, collected and counted, and then the cells were added to several culture flasks containing a complete medium; the culture flasks were placed in an incubator at 37° C., 5% CO2 for culturing the cells, and finally about 5×10^6 cells were collected into a centrifuge tube. […]
(§7) (3) Washing and loading: the working solution was removed by centrifugation at 1000 rpm for 5 minutes, and the cells were washed 3 times with PBS, and an appropriate amount of PBS was added to suspend the cells to 1×10^6 cells/ml; Beckman CytoFLEX flow cytometer was turned on in advance to complete the startup cleaning process; and the cell samples were loaded successively, and the fluorescence of 10,000 living cells was read in the APC channel; all operations were performed avoiding light exposure.
(§8) (4) Data analysis: the absolute MFI (mean fluorescence intensity) of the APC fluorescence of each cell sample and the relative MFI of the relative blank control were obtained, and a data line graph was completed according to the relative MFI.

[8] = tested on: SKOV3 human ovarian cancer cells; experiment: Cell binding and endocytosis by flow cytometry; type: cell-based; details: 8 nmol/L, 37° C., 15-90 minutes, compared with DU145 and NCI-H460
Protocol: as §5, §6, §7, §8

Compound	pIC50 [1]	pIC50 [2]	pIC50 [3]	TGI ([4]; CALU-3, 50 mg/kg q2/w * 3) [%]	anti-tumor growth effect (in words) ([4]; CALU-3 CDX)	anti-tumor growth effect (in words) ([5]; SCLC-21H CDX)	TGI ([5]; SCLC-21H, 50 mg/kg q2/w * 3) [%]	anti-tumor growth effect (in words) ([6]; SPC-A1 CDX)	TGI ([6]; 50 mg/kg q2/w * 3) [%]	TGI ([6]; 100 mg/kg q2/w * 3) [%]	binding and endocytosis (fluorescence intensity) [7]	binding and endocytosis (fluorescence intensity) [8]
CC[C@@]1(O)C(=O)OCc2c1cc1n(c2=O)Cc2c-1nc1cc(F)c(C)c3c1c2[C@@H](NC(=O)COCNC(=O)CNC(=O)[C@H](Cc1ccccc1)NC(=O)CNC(=O)CNC(=O)CCCCCN1C(=O)CC(SC[C@H](NC(=O)[C@H](CCCCN)NC(=O)[C@H](CC(=O)O)NC(=O)[C@H](CC(=O)O)NC(=O)Cc2ccc(CNC(=O)NCCCC[C@H](NC(=O)N[C@@H](CCC(=O)O)C(=O)O)C(=O)O)cc2)C(=O)N[C@@H](CCCCNC(=O)CC[C@H](NC(=O)c2ccc(NCc4cnc5[nH]c(N)nc(=O)c5n4)cc2)C(=O)O)C(N)=O)C1=O)CC3 (stereo partly drawn) [CR19428]	6.04	5.79	5.97	51	obvious anti-tumor growth effect	obvious anti-tumor growth effect	66	obvious anti-tumor growth effect	75	91		
CC1(C)C(/C=C/C=C/C=C2\N(CCCCCC(=O)NCCCCC(NC(=O)[C@H](CCCCN)NC(=O)[C@H](CC(=O)O)NC(=O)[C@H](CC(=O)O)NC(=O)Cc3ccc(CNC(=O)NCCCC[C@H](NC(=O)N[C@@H](CCC(=O)O)C(=O)O)C(=O)O)cc3)C(N)=O)c3ccc(S(=O)(=O)[O-])cc3C2(C)C)=[N+](CCCS(=O)(=O)O)c2ccc(S(=O)(=O)O)cc21 (stereo partly drawn) [Cy5-pep-20AK]											high level of binding and endocytosis	moderate level of binding and endocytosis
